Source: paper PMC9278983, “Biochemical and Structural Characterization of Thermostable GH159 Glycoside Hydrolases Exhibiting α-L-Arabinofuranosidase Activity” (Frontiers in Molecular Biosciences, 2022)

Key:
Format in all cases: biochemical
[1] = biological target: T1, Ch_Gaf159A (Caldicellulosiruptor hydrothermalis, UniProt E4QB49); assay: product inhibition, pNPA hydrolysis; conditions: read-out: % inhibition at 500 mM
T1 construct: gene Calhy_0274; full-length (no signal peptide), C-terminal His6 tag, pET24c(+), E. coli BL21 Star, IMAC; monomer
T1 sequence (E4QB49 entry or part of it): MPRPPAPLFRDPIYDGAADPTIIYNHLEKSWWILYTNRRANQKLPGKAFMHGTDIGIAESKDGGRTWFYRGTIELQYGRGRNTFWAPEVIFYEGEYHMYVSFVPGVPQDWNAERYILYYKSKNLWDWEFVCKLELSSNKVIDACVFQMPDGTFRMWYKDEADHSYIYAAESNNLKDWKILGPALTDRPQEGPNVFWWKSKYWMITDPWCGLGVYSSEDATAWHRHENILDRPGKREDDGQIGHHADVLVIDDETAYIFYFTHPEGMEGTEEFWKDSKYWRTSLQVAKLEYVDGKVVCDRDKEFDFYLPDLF

[2] = biological target: T2, Cs_Gaf159A (Caldicellulosiruptor saccharolyticus, UniProt A4XGP0); assay: product inhibition, pNPA hydrolysis; conditions: read-out: % inhibition at 500 mM
T2 construct: gene Csac_0437; full-length (no signal peptide), C-terminal His6 tag, pET24c(+), E. coli BL21 Star, IMAC
T2 sequence (A4XGP0 entry or part of it): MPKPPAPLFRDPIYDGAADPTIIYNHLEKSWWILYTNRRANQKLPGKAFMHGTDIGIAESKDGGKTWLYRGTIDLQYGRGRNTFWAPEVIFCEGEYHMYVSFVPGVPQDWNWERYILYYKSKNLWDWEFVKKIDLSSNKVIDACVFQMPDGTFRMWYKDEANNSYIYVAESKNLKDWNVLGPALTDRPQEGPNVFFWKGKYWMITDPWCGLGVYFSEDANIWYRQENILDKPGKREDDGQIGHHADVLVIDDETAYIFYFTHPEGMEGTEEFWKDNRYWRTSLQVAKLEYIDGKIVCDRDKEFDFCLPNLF

[3] = biological target: T3, Ck_Gaf159A (Caldicellulosiruptor kronotskyensis, UniProt E4SDK8); assay: product inhibition, pNPA hydrolysis; conditions: read-out: % inhibition at 500 mM
T3 construct: gene Calkro_0290; full-length (no signal peptide), C-terminal His6 tag, pET24c(+), E. coli BL21 Star, IMAC
T3 sequence (E4SDK8 entry or part of it): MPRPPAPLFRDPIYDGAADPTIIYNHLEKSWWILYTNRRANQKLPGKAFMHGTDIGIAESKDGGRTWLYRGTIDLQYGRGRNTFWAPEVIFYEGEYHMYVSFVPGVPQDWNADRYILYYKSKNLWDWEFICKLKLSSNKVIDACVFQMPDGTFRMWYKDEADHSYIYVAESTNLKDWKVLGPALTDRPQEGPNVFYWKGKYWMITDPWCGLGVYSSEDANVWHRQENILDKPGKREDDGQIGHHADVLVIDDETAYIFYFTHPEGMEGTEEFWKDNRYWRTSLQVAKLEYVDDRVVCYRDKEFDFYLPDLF

[4] = biological target: T2, Cs_Gaf159A; assay: pNP release, […] nm, Michaelis-Menten; conditions: 90 °C, pH 6.5 MOPS, 10 mM CaCl2, 10 min; saturation not reached
[5] = biological target: T1, Ch_Gaf159A; assay: pNP release, […] nm, Michaelis-Menten; conditions: 82 °C, pH 6.5 MOPS, 10 mM CaCl2, 10 min; saturation not reached

Row | inhibition at 500000 µM [1] | inhibition at 500000 µM [2] | inhibition at 500000 µM [3] | Km [4] | Km [5] | Structure (SMILES)
1 | < 50% | < 50% | < 50% | – | – | OC1OC[C@H](O)[C@H](O)[C@H]1O (some centres unmarked) [arabinose]
2 | – | – | – | > 10 mM | > 10 mM | O=[N+]([O-])c1ccc(O[C@@H]2O[C@@H](CO)[C@H](O)[C@H]2O)cc1 [pNPA, pNP-α-L-arabinofuranoside]
